± gives the expanded uncertainty stated by the source.
Details: 298.15 K; for surface tension liquid-gas: Drop volume; for mass density: 101.33 kPa, Liquid

SMILES | surface tension liquid-gas [mN/m] | mass density [kg/m3]
CCCCCl [1-chlorobutane] | 23.29 ± 0.18 | 880.69 ± 0.61
CCCCCC [hexane] | 18.06 ± 0.16 | 655.07 ± 0.98
CCC(C)O (configuration not stated) [butan-2-ol] | 23.08 ± 0.18 | 802.44 ± 0.73
CC(C)CO [2-methyl-1-propanol] | 22.47 ± 0.15 | 797.77 ± 0.62
CCCCO [butan-1-ol] | 24.25 ± 0.15 | 805.8 ± 0.29
CC(C)(C)O [2-methylpropan-2-ol] | 20.3 ± 0.14 | 780.78 ± 0.65
